This test concerns Human Microvascular Endothelial Cells (HMVEC). The test is described as follows: Endothelial cell migration assay (bFGF induced, modified Boyden chamber). It counts as cell-based. The note with it: 4 hours at 37 °C, percent inhibition of migration compared to a positive control; for inhibition at 0.5 µM: 500 nM test substance. The method, then:
The endothelial cell migration assay was performed essentially as described by Polverini, P.J. et al., Methods Enzymol, 198: 440-450 (1991). Briefly, Human Microvascular Endothelial Cells (HMVEC) were starved overnight in DMEM (Dulbecco's Modified Eagle Medium) containing 0.1% bovine serum albumin (BSA). Cells were then harvested with trypsin and resuspended in DMEM with 0.1% BSA at a concentration of 1.5 x 10^6 cells/mL. Cells were added to the bottom of a 48-well modified Boyden chamber (Nucleopore Corporation, Cabin John, MD). The chamber was assembled and inverted, and cells were allowed to attach for 2 hours at 37 °C to polycarbonate chemotaxis membranes (5 µm pore size) that had been soaked in 0.1% gelatin overnight and dried. The chamber was then reinverted and basic fibroblast growth factor (bFGF) and test substances were added to the wells of the upper chamber (to a total volume of 50 µL); the apparatus was then incubated for 4 hours at 37 °C. Membranes were recovered, fixed and stained (DiffQuick, Fisher Scientific, Pittsburgh, PA) and the number of cells that had migrated to the upper chamber per 10 high power fields were counted. Background migration to DMEM + 0.1% BSA was subtracted and the data reported as the number of cells migrated per 10 high power fields (400X) or when results from multiple experiments were combined, as the percent inhibition of migration compared to a positive control.

Setting [1] is: Homo sapiens, 600 nM test substance.

The inhibition is the relative decrease from the control value, in per cent. A high value points to a response far below the control.

Take `Nc1nc(N)nc(-c2cnccn2)n1` [Example 60, 6-pyrazinyl-1,3,5-triazine-2,4-diamine]: at 0.6 µM the inhibition under setting [1] was 100%. Same read-out and setting: to `Nc1nc(N)nc(C2CN(C(c3ccccc3)c3ccccc3)C2)n1` [Example 1, 6-[1-(diphenylmethyl)-3-azetidinyl]-1,3,5-triazine-2,4-diamine] belongs 20%. On the same count and under the same terms, to `Nc1nc(N)nc(-c2ccc3ccccc3n2)n1` [Example 47, 6-(2-quinolinyl)-1,3,5-triazine-2,4-diamine] belongs 65%. Consider `Nc1nc(N)nc(-c2ccc(Oc3ccccc3)cc2)n1` [Example 9, 6-(4-phenoxyphenyl)-1,3,5-triazine-2,4-diamine], for which the inhibition at 0.6 µM under setting [1] came to 29%. In turn, `Nc1nc(N)nc(C2CCN(C(=O)c3ccccc3)CC2)n1` [Example 74, 6-(1-benzoyl-4-piperidinyl)-1,3,5-triazine-2,4-diamine] came in with an inhibition at 0.5 µM (Homo sapiens) of 82%. Turning to `Nc1nc(N)nc(Cc2cc3ccccc3s2)n1` [Example 49, 6-(benzo[b]thien-2-ylmethyl)-1,3,5-triazine-2,4-diamine], 0.6 µM produced 14% inhibition under setting [1]. On to `CCCCC[C@H]1CC[C@H](c2ccc(-c3nc(N)nc(N)n3)cc2)CC1` [Example 8, trans-6-[4-(4-pentylcyclohexyl)phenyl]-1,3,5-triazine-2,4-diamine], for which the inhibition at 0.6 µM under setting [1] came to 30%. The molecule `Nc1nc(N)nc(N2CCC3(CC2)OCCO3)n1` [Example 13, 6-(1,4-dioxa-8-azaspiro[4,5]dec-8-yl)-1,3,5-triazine-2,4-diamine] gave an inhibition at 0.6 µM under setting [1] of 53%. For `CC1(C)C=Cc2cc(-c3nc(N)nc(N)n3)ccc2O1` [Example 50, 6-(2,2-dimethyl-2H-1-benzopyran-6-yl)-1,3,5-triazine-2,4-diamine], the inhibition at 0.6 µM under setting [1] was 100%. For the molecule `Nc1nc(N)nc(C2CCN(Cc3ccccc3)CC2)n1` [Example 75, 6-[1-(phenylmethyl)-4-piperidinyl]-1,3,5-triazine-2,4-diamine], the inhibition at 0.5 µM (Homo sapiens) was found to be 16%.

Molecule `Nc1nc(N)nc(-c2ccc(S(=O)(=O)c3ccccc3)cc2)n1` [Example 58, 6-[4-(phenylsulfonyl)phenyl]-1,3,5-triazine-2,4-diamine] displayed an inhibition at 0.6 µM under setting [1] of 100%. In the case of `Nc1nc(N)nc(-c2ccc(Cl)nc2)n1` [Example 69, 6-(6-chloro-3-pyridinyl)-1,3,5-triazine-2,4-diamine], for the setting “Homo sapiens”, the inhibition at 0.5 µM is 39%. `Nc1nc(N)nc(-c2cc(Cl)ccc2Cl)n1` [Irsogladine, reference compound] came in with an inhibition at 0.6 µM under setting [1] of 53%.

In the case of `Cc1ccc(-c2nc(N)nc(N)n2)cn1` [Example 68, 6-(6-methyl-3-pyridinyl)-1,3,5-triazine-2,4-diamine], where the note is “Homo sapiens”, the inhibition at 0.5 µM came to 73%. `CC(=O)Nc1nc(N)nc(-c2ccc(S(=O)(=O)c3ccccc3)cc2)n1` [Example 77, N-acetyl-6-[4-(phenylsulfonyl)phenyl]-1,3,5-triazine-2,4-diamine] came in with an inhibition at 0.5 µM (Homo sapiens) of 50%. `Nc1nc(N)nc(C23CCN(CC2)CC3)n1` [Example 56, 6-(1-azabicyclo[2.2.2]octan-4-yl)-1,3,5-triazine-2,4-diamine] returned an inhibition at 0.6 µM under setting [1] of 30%.

As to `Nc1nc(N)nc([C@H]2CC[C@H](c3ccccc3)CC2)n1` [Example 3, trans-6-(4-phenylcyclohexyl)-1,3,5-triazine-2,4-diamine], under setting [1], the inhibition at 0.6 µM came to 100%. Same read-out and setting: then `Nc1nc(N)nc(-c2ccc(NC(=O)Nc3ccccc3)cc2)n1` [Example 12, N-[4-(4,6-diamino-1,3,5-triazin-2-yl)phenyl]-N'-phenyl urea], with 36%; and `Nc1nc(N)nc(-c2cccc(-n3cccc3)c2)n1` [Example 4, 6-[3-(1H-pyrrol-1-yl)phenyl]-1,3,5-triazine-2,4-diamine], with 62%; and `Nc1nc(N)nc(-c2ccccc2-c2ccccc2)n1` [Example 6, 6-[1,1'-biphenyl]-2-yl-1,3,5-triazine-2,4-diamine], with 95%. The same measure, in the same setting: then `Nc1nc(N)nc(C2COc3ccccc3O2)n1` (stereo not drawn) [Example 51, 6-(2,3-dihydro-1,4-benzodioxin-2-yl)-1,3,5-triazine-2,4-diamine], with 100%; and `Nc1nc(N)nc(-c2ccc(NC(=O)NC3CCCCC3)cc2)n1` [Example 10, N-cyclohexyl-N'-[4-(4,6-diamino-1,3,5-triazin-2-yl)phenyl]urea], with 29%. As for `CNc1nc(NC)nc(-c2ccc(-c3ccccc3)cc2)n1` [Example 63, 6-[1,1'-biphenyl]-4-yl-N,N'-dimethyl-1,3,5-triazine-2,4-diamine], where the note is “Homo sapiens”, the inhibition at 0.5 µM amounted to 79%. The molecule `Nc1nc(N)nc(-c2ccc3c(c2)OCCO3)n1` [Example 55, 6-(2,3-dihydro-1,4-benzodioxin-6-yl)-1,3,5-triazine-2,4-diamine] gave an inhibition at 0.6 µM under setting [1] of 84%. The molecule `Nc1nc(N)nc(-c2nccc3ccccc23)n1` [Example 53, 6-(1-isoquinolinyl)-1,3,5-triazine-2,4-diamine] displayed an inhibition at 0.6 µM under setting [1] of 85%. The molecule `CC(=O)Nc1nc(NC(C)=O)nc(-c2ccc(S(=O)(=O)c3ccccc3)cc2)n1` [Example 76, N,N'-diacetyl-6-[4-(phenylsulfonyl)phenyl]-1,3,5-triazine-2,4-diamine] showed an inhibition at 0.5 µM (Homo sapiens) of 33%.

Consider `Nc1nc(N)nc(C23CC4CC(CC(C4)C2)C3)n1` [Example 52, 6-(tricyclo[3.3.1.1^3.7]decan-1-yl)-1,3,5-triazine-2,4-diamine], for which the “% inhibition at (nM)” value (600 nM test substance) is recorded as 100 (600) %. `Nc1nc(N)nc(-c2ccc(-c3ccc([N+](=O)[O-])cc3)cc2)n1` [Example 7, 6-(4'-nitro[1,1'-biphenyl]-4-yl)-1,3,5-triazine-2,4-diamine] had an inhibition at 0.6 µM under setting [1] of 100%.

Under setting [1], `Nc1nc(N)nc(-c2cnc3ccccc3c2)n1` [Example 48, 6-(3-quinolinyl)-1,3,5-triazine-2,4-diamine] came in with an inhibition at 0.6 µM of 55%. Regarding `Nc1nc(N)nc(C2CC3CCC2C3)n1` (stereo not drawn) [Example 65, 6-(bicyclo[2.2.1]hept-2-yl)-1,3,5-triazine-2,4-diamine], the inhibition at 0.2 µM (Homo sapiens, 200 nM test substance) was found to be 32%.

Values taken from patent EP1037886B1, “TRIAZINE ANGIOGENESIS INHIBITORS” (Abbott Laboratories, priority 1997, dated 1999).
